Measurements as given in PMC6458995, “MAP4K4 Inhibition Promotes Survival of Human Stem Cell-Derived Cardiomyocytes and Reduces Infarct Size In Vivo” (Cell Stem Cell, 2019).

Assays:
hERG = biological target: T1, hERG (Homo sapiens, UniProt Q12809); test: Ion channel safety screening (Patchliner whole-cell patch clamp); format: cell-based
T1 construct: stably expressing full length hERG; host or cells: Chinese Hamster Ovary cell line
Protocol: (§1) Electrophysiological recordings (Apconix) were performed using a Chinese Hamster Ovary cell line stably expressing full length hERG or hNaV1.5, or HEK293 cells stably expressing full length hCaV1.2. Single cell currents were measured in whole-cell configuration at 21-23°C using a Patchliner (Nanion Technologies). The internal solution for hERG contained (mM): 120 KF, 20 KCl, 10EGTA, 10 HEPES (pH 7.3). The internal solution for hNaV1.5 and CaV1.2 contained (mM): 140 CsF, 1 EGTA, 10 NaCl, 10 HEPES (pH 7.3). […] Late Na^+ currents were activated with 50 μM veratridine. Cells were clamped at a holding potential of −80 mV before a depolarising step appropriate for each channel. Currents measured from the step were referenced to the holding current. Compounds were then incubated for 2-3 min prior to a second measurement using an identical pulse train.

hNaV1.5 = biological target: T2, hNaV1.5 (Homo sapiens, UniProt Q14524); test: as above; format: cell-based
T2 construct: stably expressing full length hERG or hNaV1.5; host or cells: Chinese Hamster Ovary cell line
Protocol: as §1

hCaV1.2 = biological target: T3, hCaV1.2 (Homo sapiens, UniProt Q13936); test: as above; format: cell-based
T3 construct: HEK293 cells stably expressing full length hCaV1.2; host or cells: HEK293
Protocol: as §1

infarct size = test: Myocardial infarction (ischemia-reperfusion), infarct size by TTC/Evans blue; format: in vivo, CD-1 female mice; settings: 50 mg kg^−1 twice by gavage 10 h apart
VEGFR = test: HTRF Transcreener ADP kinase assay; format: biochemical, human
vCor.4U cells as hEHT = test: 3D human engineered heart tissue (hEHT) challenged with menadione; format: cell-based
Protocol: Fibrin-based hEHTs were generated between flexible silicone posts as described ([Breckwoldt et al., 2017], [Hansen et al., 2010]), with minor modifications. 1.8 mL well^-1 of 2% agarose in PBS was pipetted into 24-well plates, Teflon spacers (EHT Technologies) were placed inside each well as a casting mold, and the agarose was left to set for 15 min. The spacers were removed from each well, and a pair of polydimethylsiloxane posts was inserted from above (EHT Technologies: Young’s modulus […], length 10 mm, radius, 0.5 mm). VCor.4U cells (4 × 10^6) were resuspended in 400 μL of master mix (340 μL DMEM (Biochrom), 10% heat-inactivated fetal calf serum (GIBCO), 2 mM glutamine (Life Technnologies), 1% penicillin/streptomycin (GIBCO); 60 μL 2x DMEM (GIBCO), 20% horse serum (GIBCO), 2% penicillin/streptomycin). Bovine fibrinogen (Sigma) was added (10 μL: 200 mg mL^-1, 95 μg mL^-1 aprotinin (Sigma), 0.9% NaCl), and 100 μL aliquots were transferred to PCR tubes containing 3 μL of 100 U ml^-1 thrombin (Biopur) in 60% PBS. Cell suspensions then were immediately transferred to the agarose casting molds. After 90 min to allow solidification, 300 μL well^-1 of EHT medium was added (DMEM, 10% horse serum, 0.1% human insulin (Sigma), 0.1% aprotinin), to hydrate the gels for a further 50 min. The hEHTs were then transferred to fresh 24-well plates with 1.5 mL well^-1 of EHT medium, which was replaced every Monday, Wednesday, and Friday for 12 d. Auxotonic force measurements were performed daily by optical tracking ([Hansen et al., 2010]) and calculated on the basis of post deflection distance (δ), post length (L), post radius (R), and the elastic modulus (E), using the formula F = 3πER^4δ4L^-3 ([Schaaf et al., 2011]) and the indicated post parameters. Beating rate and force generation increased between d 5 and 10 and were stable for at least 7 d thereafter. On day 12, the hEHTs were challenged for 24 hr with menadione, in the absence or presence of DMX-5804. Medium, including DMX-5804, was replenished daily. […]

cardiac MAP4K4 = cardiac MAP4K4 (Mus musculus, UniProt P97820); test: Target engagement ex vivo (block to desthiobiotin-ATP binding); settings: adult mouse cardiac lysates; versus F1386-0303
Protocol: Lysates were prepared and assayed using a desthiobiotin-ATP probe Kinase Enrichment Kit (Thermo Fisher Scientific) ([Patricelli et al., 2011]). In brief, tissue samples (100-120 mg) were cut into small pieces and resuspended in 1 mL of Lysis Buffer containing protease and phosphatase inhibitors. After homogenization (30 s on ice), the lysates were centrifuged (16,000 x g at 4°C for 10 min) and a buffer-exchange to Reaction Buffer was performed, to remove endogenous ATPs. Protein concentrations were measured by the BCA assay (Thermo Fisher Scientific). Compounds were added to 500 μL of lysate at 2 mg/ml in presence of 20 mM MgCl2 and incubated for 10 min at room temperature. The ActivX desthiobiotin-ATP probe (5 μM) was added, and samples were incubated for 10 min. Reactions were stopped by adding 500 μL of 8 M Urea/Lysis Buffer, and labeled kinases were captured by incubating samples with 60 μL of 50% Streptavidin-Agarose beads. Samples were incubated with constant inversion for 2 hr at room temperature. Samples were centrifuged (1000 x g for 1 min) and washed three times with 500 μL of 4 M Urea/Lysis Buffer. Captured kinases were eluted by boiling in 30 μL of Laemmli sample buffer for 15 min. Samples were analyzed by western blotting for MAP4K4 and for Src or p38 and were normalized to the capture of the untargeted control kinase.

[1] = Glutathione (GSH)-trapping; format: in vitro ADME
141 human kinases = test: Kinase selectivity profiling, Dundee Premier Screen, whole panel; format: biochemical; settings: number of kinases; compounds at 1 μM
Protocol: Kinase selectivity profiling was performed by the International Centre for Kinase Profiling, MRC Protein Phosphorylation and Ubiquitylation Unit (141 kinases; Premier Screen, http://www.kinase-screen.mrc.ac.uk), using a [γ-^33P]ATP filter binding assay ([Bain et al., 2007]). Compounds were screened at 1 μM. For key hits, pIC50 values were then determined by HTRF as above. More complete kinome profiling was performed by Reaction Biology (376 kinases). Stability in mouse and human liver microsomes was determined by Cyprotex.

T1 sequence (Q12809 whole entry): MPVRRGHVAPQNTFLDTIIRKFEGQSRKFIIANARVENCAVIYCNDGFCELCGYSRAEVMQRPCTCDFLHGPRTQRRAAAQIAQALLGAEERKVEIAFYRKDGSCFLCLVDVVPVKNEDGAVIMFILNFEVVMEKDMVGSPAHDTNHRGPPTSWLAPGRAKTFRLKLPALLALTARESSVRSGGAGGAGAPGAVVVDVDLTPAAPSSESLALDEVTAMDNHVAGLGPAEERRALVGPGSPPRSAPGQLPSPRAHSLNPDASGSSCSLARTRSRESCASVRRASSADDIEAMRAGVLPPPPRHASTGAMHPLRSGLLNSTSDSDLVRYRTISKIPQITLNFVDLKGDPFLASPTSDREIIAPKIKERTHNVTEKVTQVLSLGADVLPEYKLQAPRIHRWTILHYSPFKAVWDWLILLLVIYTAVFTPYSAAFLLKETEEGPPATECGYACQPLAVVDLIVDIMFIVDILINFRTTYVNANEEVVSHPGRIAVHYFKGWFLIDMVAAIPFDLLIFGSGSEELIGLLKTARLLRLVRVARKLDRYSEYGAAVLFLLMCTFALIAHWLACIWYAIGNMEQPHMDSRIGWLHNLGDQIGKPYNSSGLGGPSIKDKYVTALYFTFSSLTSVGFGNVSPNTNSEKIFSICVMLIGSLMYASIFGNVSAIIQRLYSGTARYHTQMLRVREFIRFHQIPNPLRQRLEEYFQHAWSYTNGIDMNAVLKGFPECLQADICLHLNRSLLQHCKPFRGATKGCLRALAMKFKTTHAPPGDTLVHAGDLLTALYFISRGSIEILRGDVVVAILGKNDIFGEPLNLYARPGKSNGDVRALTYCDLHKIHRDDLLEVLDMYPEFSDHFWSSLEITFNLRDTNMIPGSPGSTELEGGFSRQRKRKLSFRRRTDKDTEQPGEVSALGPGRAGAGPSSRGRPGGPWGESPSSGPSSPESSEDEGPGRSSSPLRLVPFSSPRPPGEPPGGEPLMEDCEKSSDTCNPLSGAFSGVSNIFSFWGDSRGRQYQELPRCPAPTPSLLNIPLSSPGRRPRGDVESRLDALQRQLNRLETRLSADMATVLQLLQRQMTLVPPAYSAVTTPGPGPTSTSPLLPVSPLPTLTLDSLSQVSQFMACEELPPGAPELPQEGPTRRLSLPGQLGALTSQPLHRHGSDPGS
T2 sequence (Q14524 whole entry): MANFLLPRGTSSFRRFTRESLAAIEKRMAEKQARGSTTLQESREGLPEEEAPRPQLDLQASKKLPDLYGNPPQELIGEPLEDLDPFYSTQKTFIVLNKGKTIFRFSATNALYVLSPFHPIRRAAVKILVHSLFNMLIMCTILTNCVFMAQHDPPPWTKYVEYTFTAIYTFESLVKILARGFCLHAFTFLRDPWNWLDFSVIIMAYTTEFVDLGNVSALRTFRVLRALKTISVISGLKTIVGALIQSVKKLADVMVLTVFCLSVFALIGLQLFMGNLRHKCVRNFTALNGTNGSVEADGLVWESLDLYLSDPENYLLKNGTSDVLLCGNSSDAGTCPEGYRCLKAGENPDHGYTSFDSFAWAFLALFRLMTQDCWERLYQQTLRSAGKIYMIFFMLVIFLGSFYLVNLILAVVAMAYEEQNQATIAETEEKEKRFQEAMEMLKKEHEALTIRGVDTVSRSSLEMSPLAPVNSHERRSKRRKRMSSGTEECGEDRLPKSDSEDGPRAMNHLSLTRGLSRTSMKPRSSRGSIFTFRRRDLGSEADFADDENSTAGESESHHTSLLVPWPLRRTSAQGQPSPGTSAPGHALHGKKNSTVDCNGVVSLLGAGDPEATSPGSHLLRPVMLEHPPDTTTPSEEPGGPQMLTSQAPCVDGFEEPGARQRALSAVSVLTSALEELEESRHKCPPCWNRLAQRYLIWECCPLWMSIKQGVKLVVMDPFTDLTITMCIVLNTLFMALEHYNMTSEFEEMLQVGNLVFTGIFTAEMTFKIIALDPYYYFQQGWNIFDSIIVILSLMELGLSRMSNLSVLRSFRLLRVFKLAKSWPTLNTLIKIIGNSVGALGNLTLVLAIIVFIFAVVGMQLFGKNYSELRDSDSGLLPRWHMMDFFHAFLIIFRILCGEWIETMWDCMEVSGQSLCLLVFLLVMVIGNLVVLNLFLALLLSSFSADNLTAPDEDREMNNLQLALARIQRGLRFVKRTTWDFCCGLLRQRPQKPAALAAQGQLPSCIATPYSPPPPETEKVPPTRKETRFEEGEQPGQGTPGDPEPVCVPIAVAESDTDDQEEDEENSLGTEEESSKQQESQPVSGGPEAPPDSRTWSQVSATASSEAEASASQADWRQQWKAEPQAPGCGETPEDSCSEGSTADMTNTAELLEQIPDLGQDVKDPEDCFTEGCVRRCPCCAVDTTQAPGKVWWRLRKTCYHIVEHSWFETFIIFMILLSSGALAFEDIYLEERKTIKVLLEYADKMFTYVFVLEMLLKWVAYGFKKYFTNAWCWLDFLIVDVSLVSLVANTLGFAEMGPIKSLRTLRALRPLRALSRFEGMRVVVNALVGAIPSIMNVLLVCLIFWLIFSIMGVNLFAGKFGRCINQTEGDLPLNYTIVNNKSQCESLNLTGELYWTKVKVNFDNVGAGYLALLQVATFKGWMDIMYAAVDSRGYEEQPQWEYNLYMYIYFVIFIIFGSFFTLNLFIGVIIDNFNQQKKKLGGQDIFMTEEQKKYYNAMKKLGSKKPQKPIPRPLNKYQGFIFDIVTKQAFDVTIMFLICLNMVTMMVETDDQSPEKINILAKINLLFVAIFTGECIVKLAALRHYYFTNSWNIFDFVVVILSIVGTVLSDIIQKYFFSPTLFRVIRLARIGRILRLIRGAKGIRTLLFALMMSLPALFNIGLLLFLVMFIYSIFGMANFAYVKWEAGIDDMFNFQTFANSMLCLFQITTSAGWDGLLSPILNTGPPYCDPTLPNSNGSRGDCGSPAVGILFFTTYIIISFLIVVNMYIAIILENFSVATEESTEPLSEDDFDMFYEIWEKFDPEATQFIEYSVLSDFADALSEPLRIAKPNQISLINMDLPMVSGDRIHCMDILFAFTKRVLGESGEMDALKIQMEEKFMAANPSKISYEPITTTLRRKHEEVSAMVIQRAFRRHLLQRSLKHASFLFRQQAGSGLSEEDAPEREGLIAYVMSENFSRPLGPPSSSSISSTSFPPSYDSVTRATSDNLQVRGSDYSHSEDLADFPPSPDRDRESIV
cardiac MAP4K4, sequence (P97820 2-310 limits assumed): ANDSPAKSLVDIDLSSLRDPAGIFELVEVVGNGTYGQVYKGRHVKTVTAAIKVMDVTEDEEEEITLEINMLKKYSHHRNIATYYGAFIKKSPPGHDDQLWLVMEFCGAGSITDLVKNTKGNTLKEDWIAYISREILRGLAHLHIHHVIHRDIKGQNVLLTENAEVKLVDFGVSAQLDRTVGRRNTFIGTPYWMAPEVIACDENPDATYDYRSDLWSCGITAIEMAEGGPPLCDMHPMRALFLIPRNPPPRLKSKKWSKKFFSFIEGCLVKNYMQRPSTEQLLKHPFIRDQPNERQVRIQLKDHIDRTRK

Compound	off-target effect (hERG; cloned human hERG)	IC50 (hERG; hERG, CHO cells, 4-parameter logistic fit)	off-target effect (hNaV1.5; cloned human hNaV1.5)	IC50 (hNaV1.5; hNaV1.5, CHO cells, 4-parameter logistic fit)	off-target effect (hCaV1.2; cloned human hCaV1.2)	IC50 (hCaV1.2; hCaV1.2, HEK cells, 4-parameter logistic fit)	infarct size as a proportion of the area at ischemic risk (infarct size; post-injury treatment (1 h after reperfusion), vehicle 55.1%)	infarct size as a proportion of the area at ischemic risk (infarct size; pre-injury treatment (20 min prior to ischemia), vehicle 48.5%)	Fold Selectivity (VEGFR; VEGFR versus MAP4K4)	pIC50 (VEGFR; VEGFR, HTRF Transcreener ADP assay)	DMX-5804 vs F1386-0303 (VEGFR; ratio of fold selectivity, VEGFR)	cell death from menadione in hEHT (vCor.4U cells as hEHT; 10 μM, first 24 h)	adverse effect on cardiomyocyte viability, rhythmicity, calcium handling, mitochondrial function, force generation (vCor.4U cells as hEHT; 2D culture or hEHT)	rescue of contractile function in hEHT (vCor.4U cells as hEHT; 3 or 10 μM, 60 min and 24 h, not later)	greater affinity over the earlier compound (target engagement ex vivo) (cardiac MAP4K4)	glutathione (GSH)-trapping [1]	off-target effects among 141 human kinases (141 human kinases)
COCCOc1ccc(-c2cn(-c3ccccc3)c3nc[nH]c(=O)c23)cc1 [DMX-5804, 5-[4-(2-methoxy-ethoxy)-phenyl]-7-phenyl-3,7-dihydro-pyrrolo[2,3-d]pyrimidin-4-one]	no off-target effect	> 30 µM	no off-target effect	> 30 µM	no off-target effect	> 30 µM	25.6%	20.9%	675	5.72	12.27	suppressed	no adverse effect	virtually complete	10 ×	no off-target effect	–
Oc1ncnc2c1c(-c1ccccc1)cn2-c1ccccc1 [F1386-0303, 5,7-diphenyl-7H-pyrrolo[2,3-d]pyrimidin-4-ol]	–	–	–	–	–	–	–	–	–	–	–	–	–	–	–	–	5
